These results are taken from ChEMBL document CHEMBL4177652, “Synthesis of 14-deoxy-11,12-didehydroandrographolide analogues as potential cytotoxic agents for cholangiocarcinoma” (Bioorg Med Chem Lett, 2017).

One data set deals with A549. The experiment in a line: Growth inhibition of human A549 cells after 72 hrs by SRB assay. The class given is functional. Conditions: A549, 72 h, read-out: ED50 (the source's name). On the technique in general: Sulforhodamine B stains cellular protein and so reports cell mass.
The nature of data set [1]: Growth inhibition of human KKU-M213 cells after 72 hrs by SRB assay. The class given is functional. Conditions: KKU-M213, 72 h, read-out: ED50 (the source's name).
For the next data set, the system named is HT-29. Description: Growth inhibition of human HT-29 cells after 72 hrs by SRB assay. Format: functional. The following applies: HT-29, 72 h, read-out: ED50 (the source's name).
A further data set deals with HuCC-A1. Description: Growth inhibition of human HuCCa1 cells after 72 hrs by SRB assay. Format: functional. The following applies: HuCC-A1, 72 h, read-out: ED50 (the source's name).
Data set [2] can be described thus: Growth inhibition of human KKU100 cells after 72 hrs by SRB assay. Format: functional. Conditions: KKU100, 72 h, read-out: ED50 (the source's name).
The subject of the next data set is P388. Description: Growth inhibition of mouse P388 cells after 72 hrs by SRB assay. Format: functional. Conditions: P388, 72 h, read-out: ED50 (the source's name).
A further data set relates to KB. The experiment in a line: Growth inhibition of human KB cells after 72 hrs by SRB assay. The class given is functional. The following applies: read-out: ED50 (the source's name).
The next data set has as its system MCF7. The experiment in a line: Growth inhibition of human MCF7 cells after 72 hrs by SRB assay. Conditions: MCF7, 72 h, read-out: ED50 (the source's name). Format: functional.
Data set [3] can be described thus: Growth inhibition of human HEK293 cells after 72 hrs by SRB assay. Format: cell-based. The following applies: read-out: ED50.
Data set [4] in a line: Growth inhibition of rat ASK cells after 72 hrs by SRB assay. The class given is functional. The following applies: read-out: ED50 (the source's name).

Regarding `CC(=O)OC[C@@]1(C)[C@H]2CC[C@@]3(CO3)[C@@H](/C=C/C3=CCOC3=O)[C@]2(C)CC[C@H]1OC(C)=O`, the EC50 (in the data set on A549; in data set [1]; in the data set with HT-29; in the data set on HuCC-A1; in [2]; in the data set with P388) was more than 50 µM in each case. The EC50 (with KB; in the data set with MCF7; in data set [4]) was more than 50 µM in each case. The GI50 at 72 h in data set [3] was more than 50 µM.

For the compound `CC(C)[Si](OC[C@@]1(C)[C@H]2CC[C@@]3(CO3)[C@@H](/C=C/C3=CCOC3=O)[C@]2(C)CC[C@H]1O)(C(C)C)C(C)C`, the EC50 in the data set on A549 worked out at 6.58 µM; in data set [1], 3.37 µM; in the data set with HT-29, 2.28 µM; in the data set with HuCC-A1, 7.35 µM; in data set [2], 2.93 µM; in the data set on P388, 3.86 µM. Moreover, the results for the EC50 (with KB; in the data set with MCF7; in [4]) were 4.59 µM, 4.98 µM and 6.6 µM, respectively. For the same compound, the GI50 at 72 h in data set [3] amounted to 4.04 µM.

Turning to `CC(C)(C)[Si](OC[C@@]1(C)[C@H]2CC[C@@]3(CO3)[C@@H](/C=C/C3=CCOC3=O)[C@]2(C)CC[C@H]1O)(c1ccccc1)c1ccccc1`, the EC50 with A549 was 6.22 µM; in data set [1] it was 3.08 µM; with HT-29 it was 4.43 µM; in the data set on HuCC-A1, 6.41 µM; in data set [2], 3.27 µM; in the data set with P388, 4.13 µM. The EC50 in the data set on KB was found to be 4.02 µM; with MCF7 it was 4.23 µM; in data set [4], 6.81 µM. For the same compound, the GI50 at 72 h in data set [3] was found to be 4.97 µM.

With `C=C1CC[C@@H]2[C@](C)(CO[Si](C)(C)C(C)(C)C)[C@H](O)CC[C@@]2(C)[C@@H]1/C=C/C1=CCOC1=O`, the EC50 was 17.2 µM in the data set on A549; 27.4 µM in [1]; 8.48 µM in the data set on HT-29; 18.2 µM in the data set on HuCC-A1; 3.09 µM in [2]; 8.24 µM with P388. Also, the EC50 in the data set on KB was 5.12 µM; with MCF7, 7.61 µM; in data set [4], 9.61 µM. Moreover, the GI50 at 72 h in data set [3] was found to be 6.61 µM.

`C[C@]1(CO)[C@H]2CC[C@@]3(CO3)[C@@H](/C=C/C3=CCOC3=O)[C@]2(C)CC[C@H]1O`: the EC50 (in the data set with A549; in data set [1]; in the data set with HT-29; with HuCC-A1; in [2]; in the data set on P388) was more than 50 µM throughout. Moreover, the EC50 (with KB; in the data set with MCF7; in data set [4]) was more than 50 µM each time. Moreover, in [3], the GI50 at 72 h is more than 50 µM.

As for `C=C1CC[C@@H]2[C@](C)(CO[Si](C(C)C)(C(C)C)C(C)C)[C@H](OC(C)=O)CC[C@@]2(C)[C@@H]1/C=C/C1=CCOC1=O`, the EC50 was 22 µM in the data set on A549; 12.6 µM in [1]; 17.9 µM with HT-29; 10.2 µM in the data set on HuCC-A1; 4.1 µM in data set [2]; 12.1 µM in the data set with P388. For the same compound, the results for the EC50 (in the data set on KB; with MCF7; in data set [4]) were 7.17 µM, 7.07 µM and 29.4 µM, respectively. The GI50 at 72 h in data set [3] was 8.28 µM.

`C=C1CC[C@@H]2[C@](C)(COC(C)=O)[C@H](OC(C)=O)CC[C@@]2(C)[C@@H]1/C=C/C1=CCOC1=O`: the EC50 was 34 µM in the data set with A549; 37.3 µM in data set [1]; 41.9 µM in the data set on HT-29; 40.9 µM in the data set on HuCC-A1; more than 50 µM in [2]; 27.7 µM with P388. Besides, the EC50 with KB came to 25.7 µM; with MCF7, 28.8 µM; in [4], 42.5 µM. Also, the GI50 at 72 h in data set [3] stood at 25 µM.

Consider `C=C1CC[C@@H]2[C@](C)(CO[Si](C)(C)C(C)(C)C)[C@H](OC(C)=O)CC[C@@]2(C)[C@@H]1/C=C/C1=CCOC1=O`, for which the EC50 with A549 was 9.18 µM; in data set [1], 12.1 µM; with HT-29, 12.8 µM; in the data set with HuCC-A1, 16 µM; in [2], 14 µM; with P388, 6.56 µM. For the same compound, the figures for the EC50 (in the data set on KB; with MCF7; in data set [4]) were 4.94 µM, 6.37 µM and 16.2 µM, respectively. Further, in [3], the GI50 at 72 h was determined as 6.36 µM.

`CC(C)(C)[Si](C)(C)OC[C@@]1(C)[C@H]2CC[C@@]3(CO3)[C@@H](/C=C/C3=CCOC3=O)[C@]2(C)CC[C@H]1O`: the EC50 was 9.36 µM in the data set on A549; 8.57 µM in [1]; 7.24 µM with HT-29; more than 50 µM with HuCC-A1; 9.25 µM in data set [2]; 15.1 µM in the data set on P388. The EC50 in the data set with KB is 19.2 µM; in the data set on MCF7 it was 8.18 µM; in [4] it was 19 µM. The GI50 at 72 h in data set [3] came out at 6.15 µM.

Take `CC(=O)OC[C@@]1(C)[C@H]2CC[C@@]3(CO3)[C@@H](/C=C/C3=CCOC3=O)[C@]2(C)CC[C@H]1O`: the EC50 in the data set on A549 was 46.3 µM; in [1], 48.9 µM; with HT-29, 48.9 µM; with HuCC-A1 it was more than 50 µM; in [2], more than 50 µM; in the data set on P388, 20 µM. Also, the EC50 in the data set on KB is more than 50 µM; in the data set on MCF7, 43.5 µM; in data set [4], more than 50 µM. In addition, in [3], the GI50 at 72 h turned out to be 38.1 µM.

On to `C=C1CC[C@@H]2[C@](C)(COC(c3ccccc3)(c3ccccc3)c3ccccc3)[C@H](O)CC[C@@]2(C)[C@@H]1/C=C/C1=CCOC1=O`, for which the EC50 with A549 stood at 6.79 µM; in data set [1], 5.42 µM; in the data set with HT-29 it was 8.38 µM; in the data set on HuCC-A1, 7.78 µM; in data set [2], 36.2 µM; in the data set on P388 it was 3.87 µM. Further, the EC50 was found to be 4.94 µM in the data set with KB, 4.86 µM in the data set on MCF7 and 7.45 µM in [4]. Moreover, the GI50 at 72 h in data set [3] was determined as 4.68 µM.

In the case of `C=C1CC[C@@H]2[C@](C)(CO)[C@H](O)CC[C@@]2(C)[C@@H]1/C=C/C1=CCOC1=O`, the EC50 was 28.2 µM in the data set with A549; more than 50 µM in [1]; 28.6 µM in the data set with HT-29; 35.8 µM in the data set with HuCC-A1; 36.9 µM in data set [2]; 35 µM in the data set with P388. The EC50 is 5.07 µM with KB, 18.7 µM with MCF7 and more than 50 µM in [4]. Further, the GI50 at 72 h in data set [3] was 7.53 µM.

As to `C=C1CC[C@@H]2[C@](C)(COC(C)=O)[C@H](O)CC[C@@]2(C)[C@@H]1/C=C/C1=CCOC1=O`, the EC50 in the data set on A549 is 32.8 µM; in [1], more than 50 µM; in the data set with HT-29, 45 µM; in the data set on HuCC-A1, more than 50 µM; in data set [2], 40.2 µM; in the data set with P388 it was 27.7 µM. Besides, the EC50 with KB was 25.7 µM; in the data set with MCF7 it was 31.1 µM; in data set [4] it was more than 50 µM. For the same compound, the GI50 at 72 h in data set [3] was determined as 27.8 µM.

Take `C=C1CC[C@@H]2[C@](C)(CO[Si](c3ccccc3)(c3ccccc3)C(C)(C)C)[C@H](O)CC[C@@]2(C)[C@@H]1/C=C/C1=CCOC1=O`: the EC50 in the data set on A549 was 6.49 µM; in data set [1] it was 5.07 µM; in the data set with HT-29 it was 6.48 µM; with HuCC-A1, 5.53 µM; in data set [2], 14.7 µM; in the data set on P388 it was 5.51 µM. Also, the figures for the EC50 (with KB; in the data set with MCF7; in [4]) were 4.45 µM, 4.44 µM and 7.72 µM, respectively. The GI50 at 72 h in [3] turned out to be 4.4 µM.

On to `CC(=O)O[C@@H]1CC[C@]2(C)[C@H](CC[C@@]3(CO3)[C@H]2/C=C/C2=CCOC2=O)[C@]1(C)CO[Si](C)(C)C(C)(C)C`, for which the EC50 is 24.1 µM in the data set with A549; 19.1 µM in [1]; 18.6 µM in the data set with HT-29; 23.4 µM in the data set on HuCC-A1; 16.4 µM in data set [2]; 7.45 µM in the data set with P388. In addition, the EC50 in the data set on KB is 25.8 µM; in the data set with MCF7 it was 16.6 µM; in data set [4] it was 22.4 µM. Also, the GI50 at 72 h in data set [3] amounted to 18.1 µM.

On to `C=C1CC[C@@H]2[C@](C)(CO[Si](c3ccccc3)(c3ccccc3)C(C)(C)C)[C@H](OC(C)=O)CC[C@@]2(C)[C@@H]1/C=C/C1=CCOC1=O`, for which the EC50 with A549 was 9.47 µM; in data set [1], 16 µM; with HT-29, 32.5 µM; with HuCC-A1 it was 24.3 µM; in data set [2], more than 50 µM; in the data set with P388, 14.5 µM. Besides, the EC50 was 5.15 µM in the data set on KB, 7.77 µM with MCF7 and more than 50 µM in [4]. Further, in [3], the GI50 at 72 h amounted to 5.57 µM.

As to `CC(=O)O[C@@H]1CC[C@]2(C)[C@H](CC[C@@]3(CO3)[C@H]2/C=C/C2=CCOC2=O)[C@]1(C)COC(c1ccccc1)(c1ccccc1)c1ccccc1`, the EC50 in the data set with A549 was determined as 8.16 µM; in data set [1], 10.2 µM; with HT-29, 6.74 µM; with HuCC-A1 it was 9.74 µM; in [2] it was 14.1 µM; in the data set with P388, 5.28 µM. For the same compound, the EC50 was 5.12 µM in the data set on KB, 6.84 µM in the data set on MCF7 and 8.29 µM in [4]. For the same compound, in [3], the GI50 at 72 h was found to be 5.99 µM.

Consider `Cc1c2ccncc2c(C)c2c1[nH]c1ccccc12` [ELLIPTECINE], for which the EC50 with A549 is 2.37 µM; in [1], 4.75 µM; in the data set on HT-29 it was 2.68 µM; in the data set on HuCC-A1, 3.46 µM; in [2] it was 4.16 µM; in the data set with P388, 2.12 µM. The values for the EC50 (in the data set with KB; in the data set on MCF7; in data set [4]) were 2.34 µM, 1.66 µM and 2.17 µM, respectively. Further, in [3], the GI50 at 72 h is 2.27 µM.
